Test results from patent US20250041275A1, “COMPOSITION FOR USE IN THE TREATMENT OF A DISEASE” (RAMBAM MED-TECH LTD., priority 2022, published 2025).

Tests used:
[1] = system: cerulein-induced acute pancreatitis; test: cerulein-induced acute pancreatitis (AP) in WT and Hpa-Tg mice; format: in vivo; details: for pancreato-protective effects against AP: early (pre) or post treatment, 10 mg/mouse, FIGS. 3-4; for tolerability: 16 and 32 mg/kg doses; for severity of AP: 16 and 32 mg/kg doses i.p., pre-treatment, FIGS. 5 and 6
Procedure: (§1) Studies utilized wild type (WT) BALB/c mice and heparanase transgenic (Hpa-Tg) mice in which the human heparanase gene is driven by a constitutive β-actin promoter (19) in a BALB/c genetic background. Animals were fed standard mouse chow and tap water ad libitum. All experiments were approved and performed according to the Technion's guidelines of the Committee for the Supervision of Animal Experiments.
Mice were injected with either cerulein (intraperitoneally, […], 5 times at 1 hour apart) (Sigma-Aldrich), or saline (0.9% NaCl) (control group). Additional groups of mice were pretreated with either Aspirin (250 mg/kg, SC) and Trehalose (2000 mg/kg, ip) alone or combined. Additional groups of animals were pre- and post-treated with Aspirlose (10 mg/mouse). […] Finally, the inventors tested the effectivity of “Indose” and “Diclose” at various concentrations against AP. Mice were sacrificed 24 hours later, and serum samples and pancreatic tissue were collected for measurements of blood amylase and lipase levels, pancreatic index (pancreas/body weight ratio), and for histological analysis. Portion of pancreas tissues were also homogenized, and lysate samples were subjected to immunoblotting.
Pancreatic tissue samples were fixed in 10% neutral-buffered formalin progressively dehydrated in graduated alcohol and embedded in paraffin. Five-micron (5 μm) sections were stained with hematoxylin and eosin (H&E).

[2] = acute toxicity, intraperitoneal injection in wild type mice; details: mouse, in vivo, ip; intraperitoneal injection, sterile water as carrier, groups of 5 wild type mice
Procedure: (§2) Further, the inventors examined the acute toxicity of the compounds Indose and Diclose. A series of dosages: 8 mg/kg, 32 mg/kg, 64 mg/kg, 128 mg/kg, 256 mg/kg, 512 mg/kg, 768 mg/kg, 1024 mg/kg, 1,100 mg/kg, and 1,200 mg/kg were injected by intraperitoneal injection in the presence of sterile water as carrier. Each dosage was injected to a group of 5 wild type mice.

wild type mice = test: as above; details: mouse, in vivo, ip; for mortality: 500 mg/kg
Procedure: as §2

[3] = system: ischemia-reperfusion acute kidney injury; test: ischemia-reperfusion (I/R) acute kidney injury (AKI) model in Hpa-Tg mice; format: in vivo; details: pretreatment; for expression level of NGAL in kidney / expression level of KIM-1 in kidney: female Hpa-Tg mice; for expression level of NGAL in kidney / NGAL expression in kidney: FIG. 11A; for expression level of KIM-1 in kidney: FIG. 11B; for NGAL expression in kidney: male Hpa-Tg mice; for kidney weight normalized to body weight (KW/BW): Hpa-Tg mice, 48 h after AKI, FIGS. 7A and 8A; for gross morphology and histopathology of kidneys: Indose 16 mg/kg i.p., Diclose 32 mg/kg i.p., male and female Hpa-Tg mice, FIGS. 9 and 10; for increase of blood urea nitrogen (BUN) following AKI / increase of serum creatinine (SCr) following AKI: male Hpa-Tg mice (trend persisted in females), 48 h from AKI induction
Procedure: as §1
(§3) Renal ischemia was induced by clamping the renal artery of both kidneys for 30 min followed by reperfusion (I/R). The inventors tested the effectivity of “Indose” and “Diclose” before induction of ischemia (e.g., “prophylactic effect” or “pre-treatment”) or after (e.g., “treating effect” or “post-treatment”), using the dosing as disclosed hereinabove. Mice were sacrificed 48 hours later, and serum samples and kidney tissue were collected for measurements of blood creatinine and urea nitrogen levels, kidney index (kidney/body weight ratio), and for histological analysis. Portion of kidney tissues were also homogenized, and lysate samples were subjected to mRNA extraction, and expression analysis of neutrophil gelatinase-associated lipocalin (NGAL) and kidney injury molecule-1 (KIM-1).
(§4) The inventors used the ischemia-reperfusion (I/R)-AKI model in mice. The pathogenesis of this disease was evaluated based on kidney edema, blood creatinine (Scr), and blood urea nitrogen (BUN) levels were determined 48 hours following AKI induction. Further, the inventors performed histopathological analysis, as well as expression analysis of the renal injury biomarkers neutrophil gelatinase-associated lipocalin (NGAL), kidney injury molecule-1 (KIM-1).
AKI was induced in the absence or presence of pretreatment with Indose (16 mg/kg, i.p.) or Diclose (32 mg/kg, i.p.), respectively in Hpa-Tg mice (males and females). Untreated Hpa-Tg male and female mice that underwent sham operation served as control group. […] In male mice pretreated with Diclose and Indose, a reduction in NGAL expression was also observed (FIG. 11A). This trend persisted in female mice although the elevation in SCr and BUN following AKI was to a lesser extent.

[4] = system: ischemia-reperfusion acute kidney injury; test: ischemia-reperfusion (I/R) acute kidney injury (AKI) model in WT FVB/N mice; format: in vivo; details: administered short time after induction of AKI, FIGS. 13A-13C
Procedure: as §3
as §4, with “(KIM-1). […]” for “(KIM-1).”

[5] = system: cerulein-induced acute pancreatitis; details: previous studies; cited from earlier work
[6] = WT and Hpa-Tg mice, cerulein treatment, FIG. 1

SMILES | pancreato-protective effects against AP [1] | tolerability ([1]; WT and Hpa-Tg mice) | severity of AP ([1]; WT and Hpa-Tg mice) | LD50 [2] | toxicity (overall) (wild type mice) | mortality (wild type mice) | expression level of NGAL in kidney [3] | expression level of KIM-1 in kidney [3] | NGAL expression in kidney [3] | kidney weight normalized to body weight (KW/BW) [3] | gross morphology and histopathology of kidneys [3] | increase of blood urea nitrogen (BUN) following AKI [3] | increase of serum creatinine (SCr) following AKI [3] | effects on AKI, post-treatment [4] | tissue edema (histopathology of pancreas) ([1]; WT and Hpa-Tg mice exposed to cerulein, FIG. 2) | elevation in biochemical parameters (serum amylase and lipase) [1, 6] | pancreatic edema (pancreatic index, % Pancreatic weight/Body weight) [1, 6] | pancreas edema and inflammation, induction of cytokines and signaling molecules following cerulein administration [5]
CC(=O)Oc1ccccc1C(=O)OCC1O[C@H](O[C@H]2O[C@H](COC(=O)c3ccccc3OC(C)=O)[C@@H](O)[C@H](O)[C@H]2O)[C@H](O)[C@@H](O)[C@@H]1O (some centres unmarked) [Asprilose dimer] | pancreato-protective effects | – | – | – | – | – | – | – | – | – | – | – | – | – | – | – | – | –
CC(=O)Oc1ccccc1C(=O)OC[C@H]1O[C@H](O[C@H]2OC(CO)[C@@H](O)[C@H](O)[C@H]2O)[C@H](O)[C@@H](O)[C@@H]1O (some centres unmarked) [Asprilose mono] | pancreato-protective effects | – | – | – | – | – | – | – | – | – | – | – | – | – | – | – | – | –
O=C(Cc1ccccc1Nc1c(Cl)cccc1Cl)OC[C@H]1O[C@H](O[C@H]2O[C@H](CO)[C@@H](O)[C@H](O)[C@H]2O)[C@H](O)[C@@H](O)[C@@H]1O [Diclose, Trehalose-Dichlorofenac] | – | well tolerated | reduced the severity of AP | 780 mg/kg | low toxicity | No mortality was observed | effectively reduced | effectively reduced | reduction | significantly reduced | resembled kidneys of the ‘Sham’ control group | remarkably attenuated | remarkably attenuated | curative effects of AKI, with the effects of Diclose being more pronounced | – | – | – | –
Cc1c(CC(=O)OC[C@H]2O[C@H](O[C@H]3O[C@H](CO)[C@@H](O)[C@H](O)[C@H]3O)[C@H](O)[C@@H](O)[C@@H]2O)c2ccccc2n1C(=O)c1ccc(Cl)cc1 [Indose, Trehalose-Indomethacin] | – | well tolerated | reduced the severity of AP | 900 mg/kg | low toxicity | No mortality was observed | effectively reduced | effectively reduced | reduction | significantly reduced | resembled kidneys of the ‘Sham’ control group | remarkably attenuated | remarkably attenuated | curative effects | – | – | – | –
CC(C)CCC[C@@H](C)[C@H]1CC[C@H]2[C@@H]3CC[C@H]4C[C@@H](O[C@@H]5O[C@H](COS(=O)(=O)O)[C@@H](O[C@H]6O[C@H](COS(=O)(=O)O)[C@@H](O[C@H]7O[C@H](COS(=O)(=O)O)[C@@H](O[C@H]8O[C@H](COS(=O)(=O)O)[C@@H](OS(=O)(=O)O)[C@H](OS(=O)(=O)O)[C@H]8OS(=O)(=O)O)[C@H](OS(=O)(=O)O)[C@H]7OS(=O)(=O)O)[C@H](OS(=O)(=O)O)[C@H]6OS(=O)(=O)O)[C@H](OS(=O)(=O)O)[C@H]5OS(=O)(=O)O)CC[C@]4(C)[C@H]3CC[C@]12C [PG545, reference compound] | – | – | – | – | – | – | – | – | – | – | – | – | – | – | markedly restored | markedly reduced | markedly reduced | attenuated markedly
